Data as given in US10906876B2, “Tetrahydroisoquinolines as selective NADPH oxidase 2 inhibitors” (University of Pittsburgh—Of the Commonwealth System of …, priority 2013, dated 2021).

Molecular target: T1, Nox1 (Homo sapiens, UniProt Q9Y5S8)
T1 construct: Plasmids encoding full-length human cDNAs for Nox1 (pcDNA3.1-hNox1); expressed in transfected cells; host or cells: COS-22 (COS-7 stably expressing human p22phox), transient co-transfection
T1 sequence (Q9Y5S8 1-564): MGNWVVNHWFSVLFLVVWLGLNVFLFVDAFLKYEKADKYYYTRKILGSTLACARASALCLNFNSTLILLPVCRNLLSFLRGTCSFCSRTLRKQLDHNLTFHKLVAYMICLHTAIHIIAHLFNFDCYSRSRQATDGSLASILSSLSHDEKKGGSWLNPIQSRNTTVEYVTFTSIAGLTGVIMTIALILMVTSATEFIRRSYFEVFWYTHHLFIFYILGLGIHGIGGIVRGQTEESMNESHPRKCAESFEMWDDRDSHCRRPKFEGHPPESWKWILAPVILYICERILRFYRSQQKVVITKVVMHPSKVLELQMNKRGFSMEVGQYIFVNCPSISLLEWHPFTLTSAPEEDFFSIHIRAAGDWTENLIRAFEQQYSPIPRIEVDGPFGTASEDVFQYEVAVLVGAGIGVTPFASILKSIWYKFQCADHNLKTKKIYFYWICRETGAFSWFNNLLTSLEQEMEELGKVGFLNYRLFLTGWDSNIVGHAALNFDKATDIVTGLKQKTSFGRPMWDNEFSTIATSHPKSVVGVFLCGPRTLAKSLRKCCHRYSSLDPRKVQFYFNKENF
T1 sequence (P13498 2-195 partner limits assumed): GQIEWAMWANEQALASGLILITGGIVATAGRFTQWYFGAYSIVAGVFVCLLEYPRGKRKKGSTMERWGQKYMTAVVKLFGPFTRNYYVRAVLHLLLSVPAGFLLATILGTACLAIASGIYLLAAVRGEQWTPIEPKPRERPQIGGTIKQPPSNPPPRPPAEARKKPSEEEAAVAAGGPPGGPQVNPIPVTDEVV
Test: Constitutive Nox1 activity in transiently transfected COS-Nox1/NOXO1/NOXA1 cells, L-012 assay
Type: cell-based
Settings: for Nox1 inhibitory activity: Table 2; for IC50: constitutive activity, transiently transfected Cos-Nox1 cells, L-012, read-out: IC50 of ROS generation, Nox1 (L-012 assay)
Source text: Plasmids encoding full-length human cDNAs for Nox1 (pcDNA3.1-hNox1), NOXO1 (pcDNA3.1-hNOXO1), NOXA1 (pCMVsport 6-hNOXA1), p47phox (pCMV-Tag4A-hp47) and Nox4 (pcDNA3-hNox4) were kindly provided by Dr. David Lambeth (Emory University, Ga.). Plasmids encoding Nox1, NOXO1, or NOXA1 were transformed and amplified into Escherichia coli strain TOP10 (Invitrogen, Carlsbad, Calif.). Plasmids were purified using a QIAfilter plasmid purification kit (QIAGEN Inc., Valencia, Calif.). For human Nox4 expression, the BglII/NotI restriction fragment from the pcDNA3-hNox4 was subcloned into the plasmid pcDNA3.1/Hygro(−) (Invitrogen, Carlsbad, Calif.) to generate pcDNA3.1/Hygro-hNox4. The fragment sequence, in-frame insertion and orientation were validated by DNA sequencing after PCR amplification. pcDNA3.1/Hygro-hNox4 was amplified into Escherichia coli strain TOP10 and purified with a QIAfilter plasmid purification kit.
Cell transfection was carried out using Lipofectamine LTX and Plus reagent (Invitrogen, Carlsbad, Calif., USA), according to the manufacturer's instructions. COS-22 cells were transiently co-transfected with pcDNA 3.1-hNox1, pCMVsport 6-hNOXA1 and pcDNA3.1-hNoxO1 (COS-Nox1/NOXO1/NOXA1 cells) or with pcDNA3.1/Hygro-hNox4 (COS-Nox4 cells). Cells were used 24 hr after transfection. Adherent cells were harvested by incubating with 0.05% trypsin/EDTA for 5 min at 37° C. Following addition of DMEM/10% FBS to neutralize the trypsin, the cells were pelleted by centrifugation at 1100×g for 5 min at 4° C. and used for the experiments.
COS-Nox2, COS-Nox1/NOXO1/NOXA1, HEK-Nox5 and COS-22 cells were re-plated in OPTIMEM into 384-well white micro-plates (Greiner-Bio One GmbH, Germany) at a density of 2.5×10^3 cells/well for COS-Nox2 and 5×10^4 cells/well for all others. The cells were incubated at 37° C. in PBS containing […] L-012 for 10 min. Reaction was initiated by addition of 5 μM PMA in the case of Nox2 or 1 μM PMA/0.1 μM Ionomycin in the case of Nox5. Since Nox1 was constitutively active, Nox1-derived O2^•− was assessed by comparison to non-transfected cells (Cos22). Luminescence was quantified over time using a Biotek Synergy 4 Hybrid Multi-Mode Microplate Reader. The specificity of L-012 for O2^•− was confirmed by the addition of SOD (150 U/mL).
All data are expressed as means±SEM. IC50 values were determined using the GraphPad Prism software (GraphPad Software, San Diego, Calif.) for non-linear regression three-parameters, with constrain values of 100 and 0 for top and bottom, respectively, and assumes a Hill slope of 1.

Row | SMILES | Nox1 inhibitory activity | IC50 [µM]
1 | C=C(C)CC1NC2CC(C)(C)C1c1c(Br)cccc12 (racemic) [Compound 7, (±)-(1S,4R,9S)-5-Bromo-3,3-dimethyl-9-(2-methylallyl)-1,2,3,4-tetrahydro-1,4-(epimino-methano)-naphthalene] | active | 31 ± 0.7
2 | C=C(C)CC1NC2CC(C)(C)C1c1ccccc12 (racemic) [Compound 8, (±)-(1S,4R,9S)-3,3-Dimethyl-9-(2-methylallyl)-1,2,3,4-tetrahydro-1,4-(epiminomethano)-naphthalene] | inactive | > 100
3 | C=C(C)CC1C2c3ccccc3C(CC2(C)C)N1Cc1cccc(F)c1 (racemic) [Compound 11a, (±)-(1S,4R,9S)-10-(3-Fluorobenzyl)-3,3-dimethyl-9-(2-methylallyl)-1,2,3,4-tetrahydro-1,4-(epiminomethano)naphthalene] | – | > 100
4 | C=C(C)CC1C2c3c(Br)cccc3C(CC2(C)C)N1Cc1ccnc2ccccc12 (racemic) [Compound 11b, (±)-(1S,4R,9S)-5-Bromo-3,3-dimethyl-9-(2-methylallyl)-10-(quinolin-4-ylmethyl)-1,2,3,4-tetra-hydro-1,4-(epiminomethano)naphthalene] | – | > 100
5 | C=C(C)CC1C2c3c(Br)cccc3C(CC2(C)C)N1Cc1c[nH]c2ccccc12 (racemic) [Compound 11c, (±)-(1S,4R,9S)-10-((1H-Indol-3-yl)methyl)-5-bromo-3,3-dimethyl-9-(2-methylallyl)-1,2,3,4-tetrahydro-1,4-(epiminomethano)naphthalene] | – | > 100
6 | C=C(C)CC1C2c3c(Br)cccc3C(CC2(C)C)N1Cc1ccc2c(c1)OCO2 (racemic) [Compound 11d, (±)-(1S,4R,9S)-10-(Benzo[d][1,3]dioxol-5-ylmethyl)-5-bromo-3,3-dimethyl-9-(2-methylallyl)-1,2,3,4-tetrahydro-1,4-(epiminomethano)naphthalene] | – | > 100
7 | C=C(C)CC1C2c3c(Br)cccc3C(CC2(C)C)N1Cc1cc(C)on1 (racemic) [Compound 11e, (±)-3-(1S,4R,9S)-5-Bromo-3,3-dimethyl-9-(2-methylallyl)-1,2,3,4-tetrahydro-1,4-(epimino-methano) naphthalen-10-yl)methyl)-5-methylisoxazole] | – | > 100
8 | C=C(C)CC1C2c3c(Br)cccc3C(CC2(C)C)N1Cc1cccc(F)c1 (racemic) [Compound 11f, (±)-(1S,4R,9S)-5-Bromo-10-(3-fluorobenzyl)-3,3-dimethyl-9-(2-methylallyl)-1,2,3,4-tetrahydro-1,4-(epiminomethano)naphthalene] | – | > 100
9 | C=C(C)CC1C2c3c(Br)cccc3C(CC2(C)C)N1CCCCC (racemic) [Compound 11g, (±)-(1S,4R,9S)-5-Bromo-3,3-dimethyl-9-(2-methylallyl-10-pentyl-1,2,3,4-tetrahydro-1,4-(epiminomethano)naphthalene] | virtually no effect | > 100
10 | C=C(C)CC1C2c3c(Br)cccc3C(CC2(C)C)N1Cc1cccs1 (racemic) [Compound 11h, (±)-(1S,4R,9S)-5-Bromo-3,3-dimethyl-9-(2-methylallyl)-10-(thiophen-2-ylmethyl)-1,2,3,4-tetrahydro-1,4-(epiminomethano)naphthalene] | virtually no effect | > 100
11 | C=C(C)CC1NC2CC(C)(C)C1c1c(-c3ccc(Cl)c(Cl)c3)cccc12 (racemic) [Compound 12a, (±)-(1S,4R,9S)-5-(3,4-Dichlorophenyl)-3,3-dimethyl-9-(2-methylallyl)-1,2,3,4-tetrahydro-1,4-(epiminomethano)naphthalene] | – | > 100
12 | C=C(C)CC1C2c3c(-c4ccc(Cl)c(Cl)c4)cccc3C(CC2(C)C)N1Cc1ccc2c(c1)OCO2 (racemic) [Compound 12b, (±)-(1S,4R,9S)-10-(Benzo[d][1,3]dioxol-5-ylmethyl)-5-(3,4-dichlorophenyl)-3,3-dimethyl-9-(2-methylallyl)-1,2,3,4-tetrahydro-1,4-(epiminomethano)-naphthalene] | – | > 100
13 | C=C(C)CC1C2c3c(-c4ccc(Cl)c(Cl)c4)cccc3C(CC2(C)C)N1CCCCC (racemic) [Compound 12c] | – | > 100
14 | CC(C)CC1NC2CC(C)(C)C1c1c(Br)cccc12 (racemic) [Compound 13] | retained inhibitory activity | 32 ± 18
15 | C=C(C)CC1C2c3c(Br)cccc3C(CC2(C)C)N1S(C)(=O)=O (racemic) [Compound 14a, (±)-(1S,4R,9S)-5-Bromo-3,3-dimethyl-9-(2-methylallyl)-10-(methylsulfonyl)-1,2,3,4-tetrahydro-1,4-(epiminomethano)naphthalene] | – | > 100
16 | C=C(C)CC1C2c3c(Br)cccc3C(CC2(C)C)N1S(=O)(=O)c1ccc(F)cc1 (racemic) [Compound 14b, (±)-(1S,4R,9S)-5-Bromo-10-((4-fluorophenyl)sulfonyl)-3,3-dimethyl-9-(2-methylallyl)-1,2,3,4-tetrahydro-1,4-(epiminomethano)naphthalene] | – | > 100
17 | C=C(C)C[C@@H]1N[C@H]2CC(C)(C)[C@@H]1c1c(Br)ccc(Br)c12 [Compound 9] | active | 60 ± 36
